The source of these data is patent US20240116985A1, “STAPLED PEPTIDES AND METHODS THEREOF” (priority 2020, published 2024).

For the first assay, the target named is T1, full-length beta-Catenin (Uniprot ID P35222) (Homo sapiens, UniProt P35222).
T1 construct: 10 nM full-length beta-Catenin (Uniprot ID P35222)
T1 sequence (P35222 1-781): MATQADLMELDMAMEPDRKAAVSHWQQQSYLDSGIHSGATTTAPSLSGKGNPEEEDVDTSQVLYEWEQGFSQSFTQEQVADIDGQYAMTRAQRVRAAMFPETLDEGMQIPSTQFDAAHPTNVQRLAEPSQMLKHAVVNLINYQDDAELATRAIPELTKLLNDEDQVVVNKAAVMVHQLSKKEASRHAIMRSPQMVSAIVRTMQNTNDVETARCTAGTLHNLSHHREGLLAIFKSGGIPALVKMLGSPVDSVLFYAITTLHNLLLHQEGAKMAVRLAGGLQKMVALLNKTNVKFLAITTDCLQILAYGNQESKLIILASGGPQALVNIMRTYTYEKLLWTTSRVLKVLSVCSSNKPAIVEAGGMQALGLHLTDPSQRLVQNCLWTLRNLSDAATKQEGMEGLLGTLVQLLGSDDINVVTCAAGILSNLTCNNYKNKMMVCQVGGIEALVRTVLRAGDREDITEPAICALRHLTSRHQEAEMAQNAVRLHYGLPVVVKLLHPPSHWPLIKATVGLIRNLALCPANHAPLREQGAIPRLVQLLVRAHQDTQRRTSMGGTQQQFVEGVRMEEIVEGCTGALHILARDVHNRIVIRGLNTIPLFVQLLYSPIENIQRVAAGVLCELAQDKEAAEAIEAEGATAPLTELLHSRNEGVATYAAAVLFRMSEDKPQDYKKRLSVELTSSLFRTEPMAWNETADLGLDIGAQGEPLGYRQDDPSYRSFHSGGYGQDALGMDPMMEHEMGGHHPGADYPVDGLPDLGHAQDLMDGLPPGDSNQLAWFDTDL
Briefly: Fluorescence polarization IC50 (beta-catenin / 5FAM-TCF4 10-53 competition). The assay is classed as binding. The settings on record: fluorescence polarization, beta-catenin; read-out: FP EC50. (Polarisation of emitted light reports the rotation of a fluorescent probe.)
As for `CC(=O)N1CCC[C@]12CC=CCCCC1(CCCC=CCCCOC(=O)N3CC[C@@](C(=O)N[C@@H](Cc4ccsc4)C(=O)N[C@@H](Cc4csc5ccccc45)C(=O)N[C@@H](CCC(N)=O)C(=O)O)(C3)NC(=O)[C@H](CC(N)=O)NC(=O)[C@H](CC(=O)O)NC(=O)[C@H](C)NC(=O)[C@H](C)NC(=O)[C@H](CC(=O)O)NC(=O)[C@H](CC(=O)O)NC1=O)NC(=O)[C@H](CC(C)(C)C)NC(=O)[C@H](Cc1ccccc1)NC2=O` (stereo partly drawn) [I-1027, Ac-PL3-Phe-Npg-B5-Asp-Asp-Ala-Ala-Asp-Asn-PyrS2-3Thi-BztA-Gln-OH], the IC50 was found to be 1140 nM. In the case of `CC(=O)N1CCC[C@]12CC=CCCCC1(CCCC=CCCCOC(=O)N3CC[C@@](C(=O)N[C@@H](Cc4ccccc4Cl)C(=O)N[C@@H](Cc4csc5ccccc45)C(=O)N[C@@H](CN4CCOCC4)C(N)=O)(C3)NC(=O)[C@H](CC(N)=O)NC(=O)[C@H](Cc3ccccc3)NC(=O)[C@H](C)NC(=O)[C@H](C)NC(=O)[C@H](CC(=O)O)NC(=O)[C@H](CC(=O)O)NC1=O)NC(=O)[C@H](CC(C)(C)C)NC(=O)[C@H](CC(=O)O)NC2=O` (stereo partly drawn) [I-1134, Ac-PL3-Asp-Npg-B5-Asp-Asp-Ala-Ala-Phe-Asn-PyrS2-2C1F-BztA-MorphAla-NH2], the IC50 came to 6 nM.

The same assay, now with this note: fluorescence polarization; read-out: beta-Catenin FP IC50.
Turning to `C[C@@H]1NC(=O)[C@H](C)NC(=O)[C@H](CC(=O)O)NC(=O)[C@H](CC(=O)O)NC(=O)C2(CCCC=CCCCOC(=O)N3CC[C@@](C(=O)N[C@@H](Cc4ccsc4)C(=O)N[C@@H](Cc4csc5ccccc45)C(=O)N[C@@H](CCC(N)=O)C(N)=O)(C3)NC(=O)[C@H](CC(N)=O)NC(=O)[C@H](Cc3ccccc3)NC1=O)CCCC=CCS(=O)(=O)N1CCCC1C(=O)N[C@@H](CC(=O)O)C(=O)N[C@@H](CC(C)(C)C)C(=O)N2` (single isomer, unassigned) [I-1576, ProSAm3-Asp-Npg-B5-Asp-Asp-Ala-Ala-Phe-Asn-PyrS2-3Thi-BztA-Gln-NH2], the IC50 is 224 nM.

With `C[C@@H]1NC(=O)[C@H](C)NC(=O)[C@H](CC(=O)O)NC(=O)[C@H](CC(=O)O)NC(=O)C2(CCCC=CCCCOC(=O)N3CC[C@@](C(=O)N[C@@H](Cc4ccsc4)C(=O)N[C@@H](Cc4csc5ccccc45)C(=O)N[C@@H](CCC(N)=O)C(N)=O)(C3)NC(=O)[C@H](CC(N)=O)NC(=O)[C@H](Cc3ccccc3)NC1=O)CCCC=CCS(=O)(=O)N1CCCC1C(=O)N[C@@H](CC(=O)O)C(=O)N[C@@H](CC(C)(C)C)C(=O)N2` (single isomer, unassigned) [I-1577, ProSAm3-Asp-Npg-B5-Asp-Asp-Ala-Ala-Phe-Asn-PyrS2-3Thi-BztA-Gln-NH2], the IC50 was determined as 45 nM. Still for that read-out and setting: the figure for `CC(=O)N1CCC[C@]12CC=CCCCC1(CCCC=CCCCOC(=O)N3CC[C@@](C(=O)N[C@@H](Cc4ccccc4C(F)(F)F)C(=O)N[C@@H](Cc4csc5ccccc45)C(=O)N[C@@H](CO)C(N)=O)(C3)NC(=O)[C@H](CC(C)C)NC(=O)[C@H](Cc3ccccc3)NC(=O)[C@H](C)NC(=O)[C@H](C)NC(=O)[C@H](Cc3ccccc3C(=O)O)NC(=O)[C@H](CC(=O)O)NC1=O)NC(=O)[C@H](CC(C)(C)C)NC(=O)[C@H](CC(=O)O)NC2=O` (single isomer, unassigned) [I-1660, Ac-PL3-Asp-Npg-B5-Asp-2COOHF-Ala-Ala-Phe-Leu-PyrS2-2F3MeF-BztA-Ser-NH2] is 99 nM; for `CC(=O)N1CCC[C@]12CC=CCCCC1(CCCC=CCCCOC(=O)N3CC[C@@](C(=O)N[C@@H](Cc4ccsc4)C(=O)N[C@@H](Cc4csc5ccccc45)C(=O)N[C@@H](CCC(N)=O)C(N)=O)(C3)NC(=O)[C@H](CC(N)=O)NC(=O)[C@H](Cc3ccccc3)NC(=O)[C@H](C)NC(=O)[C@H](C)NC(=O)[C@H]([C@@H](C)O)NC(=O)[C@H](CC(N)=O)NC1=O)NC(=O)[C@H](CC(C)(C)C)NC(=O)[C@H](Cc1ccccc1C(=O)O)NC2=O` (single isomer, unassigned) [I-2136, Ac-PL3-2COOHF-Npg-B5-Asn-Thr-Ala-Ala-Phe-Asn-PyrS2-3Thi-BztA-Gln-NH2] it is 5820 nM; for `CC(=O)N1CCC[C@]12CC=CCCCC1(CCCC=CCCCOC(=O)N3CC[C@@](C(=O)N[C@@H](Cc4ccsc4)C(=O)N[C@@H](Cc4csc5ccccc45)C(=O)N[C@@H](CCC(N)=O)C(N)=O)(C3)NC(=O)[C@H](CC(N)=O)NC(=O)[C@H](Cc3ccccc3)NC(=O)[C@H](C)NC(=O)[C@H](C)NC(=O)[C@H]([C@@H](C)O)NC(=O)[C@H](CC(N)=O)NC1=O)NC(=O)[C@H](CC(C)(C)C)NC(=O)[C@H](Cc1ccccc1C(=O)O)NC2=O` (single isomer, unassigned) [I-2137, Ac-PL3-2COOHF-Npg-B5-Asn-Thr-Ala-Ala-Phe-Asn-PyrS2-3Thi-BztA-Gln-NH2] it is 1900 nM.

For `CC(=O)N1CCC[C@]12CC=CCCCC1(CCCC=CCCCOC(=O)N3CC[C@@](C(=O)N[C@@H](Cc4ccsc4)C(=O)N[C@@H](Cc4csc5ccccc45)C(=O)N[C@@H](CCC(N)=O)C(N)=O)(C3)NC(=O)[C@H](CC(C)C)NC(=O)C(Cc3cccc(C(=O)Oc4ccccc4)c3)NC(=O)[C@H](C)NC(=O)[C@H](C)NC(=O)[C@H](CN(CC(=O)O)CC(F)(F)F)NC(=O)[C@H](CC(=O)O)NC1=O)NC(=O)[C@H](CC(C)(C)C)NC(=O)[C@H](CC(=O)O)NC2=O` (single isomer, unassigned) [I-2150, Ac-PL3-Asp-Npg-B5-Asp-TfeGA-Ala-Ala-3CO2PhF-Leu-PyrS2-3Thi-BztA-Gln-NH2], the IC50 is 647 nM. Turning to `CNC(=O)C[C@@H]1NC(=O)C2(CCCC=CCCCCCC[C@@](C)(C(=O)N[C@@H](Cc3ccccc3)C(=O)N[C@@H](Cc3csc4ccccc34)C(=O)N[C@@H](CCC(N)=O)C(N)=O)NC(=O)[C@H](C(C)C)NC(=O)[C@H](Cc3ccccc3)NC(=O)[C@H](C)NC(=O)[C@H](C)NC(=O)[C@H](CC(=O)O)NC1=O)CCCC=CC[C@]1(CCCN1C(C)=O)C(=O)N[C@@H](CC(=O)O)C(=O)N[C@@H](C)C(=O)N2` (stereo partly drawn) [I-540, Ac-PL3-Asp-Ala-B5-[NHMe]AsnR-Asp-Ala-Ala-Phe-Val-S8-Phe-BztA-Gln-NH2], the IC50 came to 5000 nM. For the molecule `CC(=O)N1CCC[C@]12CC=CCCCC1(CCCC=CCCCOC(=O)N3CC[C@@](C(=O)N[C@@H](Cc4ccccc4Cl)C(=O)N[C@@H](Cc4csc5ccccc45)C(=O)N[C@@H](CN4CCOCC4)C(N)=O)(C3)NC(=O)[C@H](CC(N)=O)NC(=O)[C@H](Cc3ccccc3)NC(=O)[C@H](C)NC(=O)[C@H](C)NC(=O)[C@H](CC(=O)O)NC(=O)[C@H](CC(=O)O)NC1=O)NC(=O)[C@H](CC(C)(C)C)NC(=O)[C@H](CC(=O)O)NC2=O` (stereo partly drawn) [I-1133, Ac-PL3-Asp-Npg-B5-Asp-Asp-Ala-Ala-Phe-Asn-PyrS2-2C1F-BztA-MorphAla-NH2], the IC50 came out at 5 nM. Still for that read-out and setting: the figure for `CC(=O)N1CCC[C@]12CC=CCCCC1(CCCC=CCCCOC(=O)N3CC[C@@](C(=O)N[C@@H](Cc4ccccc4Cl)C(=O)N[C@@H](Cc4csc5ccccc45)C(=O)N[C@@H](CN4CCOCC4)C(N)=O)(C3)NC(=O)[C@H](CC(N)=O)NC(=O)[C@H](Cc3ccccc3)NC(=O)[C@H](C)NC(=O)[C@H](C)NC(=O)[C@H](CC(=O)O)NC(=O)[C@H](CC(=O)O)NC1=O)NC(=O)[C@H](CC(C)(C)C)NC(=O)[C@H](CC(=O)O)NC2=O` (stereo partly drawn) [I-1134, Ac-PL3-Asp-Npg-B5-Asp-Asp-Ala-Ala-Phe-Asn-PyrS2-2C1F-BztA-MorphAla-NH2] is 6 nM; for `CC(=O)N1CCC[C@]12CC=CCCCC1(CCCC=CCCCOC(=O)N3CC[C@@](C(=O)N[C@@H](Cc4ccccc4Cl)C(=O)N[C@@H](Cc4csc5ccccc45)C(=O)N[C@@H](CCC(N)=O)C(N)=O)(C3)NC(=O)[C@H](CO)NC(=O)[C@H](Cc3ccccc3)NC(=O)[C@H](CC(C)C)NC(=O)[C@H](C)NC(=O)[C@H](CC(=O)O)NC(=O)[C@H](CC(=O)O)NC1=O)NC(=O)[C@H](Cc1ccccc1)NC(=O)[C@H](CC(=O)O)NC2=O` (stereo partly drawn) [I-1154, Ac-PL3-Asp-Phe-B5-Asp-Asp-Ala-Leu-Phe-Ser-PyrS2-2C1F-BztA-Gln-NH2] it is 45 nM.

Take `CC(=O)N1CCC[C@]12CC=CCCCC1(CCCC=CCCCOC(=O)N3CC[C@@](C(=O)N[C@@H](Cc4ccccc4Cl)C(=O)N[C@@H](Cc4csc5ccccc45)C(=O)N[C@@H](CCC(N)=O)C(N)=O)(C3)NC(=O)[C@H](CO)NC(=O)[C@H](Cc3ccccc3)NC(=O)[C@H](CC(C)C)NC(=O)[C@H](CC(C)C)NC(=O)[C@H](CC(=O)O)NC(=O)[C@H](CC(=O)O)NC1=O)NC(=O)[C@H](Cc1ccccc1)NC(=O)[C@H](CC(=O)O)NC2=O` (stereo partly drawn) [I-1155, Ac-PL3-Asp-Phe-B5-Asp-Asp-Leu-Leu-Phe-Ser-PyrS2-2C1F-BztA-Gln-NH2]: the IC50 came to 60 nM. The same measure, in the same setting: the value for `CC(=O)N1CCC[C@]12CC=CCCCC1(CCCC=CCCCOC(=O)N3CC[C@@](C(=O)N[C@@H](Cc4ccsc4)C(=O)N[C@@H](Cc4csc5ccccc45)C(=O)N[C@@H](CCC(N)=O)C(N)=O)(C3)NC(=O)[C@H](CC(N)=O)NC(=O)[C@H](Cc3ccccc3)NC(=O)[C@H](C)NC(=O)[C@H](C)NC(=O)[C@H](CN(CC(=O)O)CC(F)(F)F)NC(=O)[C@H](CC(=O)O)NC1=O)NC(=O)[C@H](CC(C)(C)C)NC(=O)[C@H](CC(=O)O)N(C)C2=O` (stereo partly drawn) [I-1162, Ac-PL3-NMeD-Npg-B5-Asp-TfeGA-Ala-Ala-Phe-Asn-PyrS2-3Thi-BztA-Gln-NH2] was 1530 nM.

Still in this assay, the particulars now being: read-out: beta-Catenin FP IC50.
For `CC(=O)N1CCC[C@]12CC=CCCCC1(CCCC=CCCCOC(=O)N3CC[C@@](C(=O)N[C@@H](Cc4ccccc4Cl)C(=O)N[C@@H](Cc4csc5ccccc45)C(=O)N4CCC[C@H]4CO)(C3)NC(=O)[C@H](CC(N)=O)NC(=O)[C@H](Cc3ccccc3)NC(=O)[C@H](C)NC(=O)[C@H](C)NC(=O)[C@H](CC(=O)O)NC(=O)[C@H](CC(=O)O)NC1=O)NC(=O)[C@H](CC(C)(C)C)NC(=O)[C@H](CC(=O)O)NC2=O` (stereo partly drawn) [I-1084, Ac-PL3-Asp-Npg-B5-Asp-Asp-Ala-Ala-Phe-Asn-PyrS2-2C1F-BztA-Proo1], the IC50 was found to be 368 nM.
